Assay results reported in US8865724B2, “Preparation of 2-methyl-4-amino-5(substituted-1H-1,2,3-triazolyl)methylpyrimidine derivatives and microbicidal activity thereof” (Central China Normal University, priority 2011, dated 2014).
Where two headings read alike, the source gives them in different places.

How the values were obtained:
[1] = test system: Rice Sheath Blight Disease; experiment: Microbicidal activity, spray then strip inoculation (Embodiment 8); settings: Oryza sativa, read-out: Rice Sheath Blight Disease Average inhibition rate (%)
Method: (§1) (Pseudomonassyringaepv. tomato (Okabe) Young, Dye & Wilkie), Cucumber Angular Leaf Spot, Rice Sheath Blight Disease (Rhizoctonia solani), Corynespora Leaf Spot of Cucumber (Corynespora cassiicola), Downy Mildew of Cucumber (Cucumber Downy Mildew).
(§2) Testing agents and control agents were sprayed uniformly at A.M. of a sunshine day on the cucumber seminal leaves. After 2 hours, the leaves were inoculated with pathogenic microbes and cultured at humidity. […] Strip inoculation is used for Rice Sheath Blight Disease and phytophthora blight of pepper, in which the liquor was sprayed and after 2 hours, inoculation of strips was performed followed by culturing at humidity. After full occurrence of diseases in the control group, state of illness was examined according to grading standards, and a disease index and inhibition rate were calculated.

[2] = test system: Cucumber Angular Leaf Spot; experiment: Microbicidal activity on cucumber seedlings, spray then inoculation (Embodiment 8); settings: Cucumis sativus, read-out: Cucumber Angular Leaf Spot Average inhibition rate (%)
Method: as §1, §2

[3] = test system: Corynespora Leaf Spot of Cucumber; experiment: Microbicidal activity on cucumber seedlings, spray then spore inoculation (Embodiment 8); settings: Corynespora, in Cucumis sativus, read-out: Corynespora Leaf Spot of Cucumber Average inhibition rate (%)
Method: as §1, §2

[4] = test system: Downy Mildew of Cucumber; experiment: as above; settings: Cucumis sativus, read-out: Downy Mildew of Cucumber Average inhibition rate (%)
Method: as §1, §2

[5] = test system: gray mold of cucumber; experiment: Spawn growth rate on agar plates (Embodiment 9); format: cell-based, Botrytis cinerea; settings: 48 h; for inhibition of growth at 12.5 µg/g: Concentration 12.5 μg/g; for inhibition of growth at 25 µg/g: Concentration 25 μg/g; for inhibition of growth at 50 µg/g: Concentration 50 μg/g
[6] = test system: wheat scab; experiment: microbe, parasite or virus in culture; format: cell-based, Gibberella zeae; settings: for inhibition of growth at 100 µg/g: 48 h, read-out: Wheat scab Average inhibition rate (%); for Wheat scab (inhibition): Table 7
[7] = test system: early blight of tomato; experiment: Spawn growth rate on agar plates (Embodiment 9); format: cell-based, Alternaria solania; settings: for inhibition of growth at 100 µg/g: 48 h, testing concentration of 100 μg/g, Table 6; for Early blight of tomato (inhibition): Table 7
[8] = test system: Rice Sheath Blight Disease (sheath and culm blight of rice); experiment: Spawn growth rate on agar plates (Embodiment 9); format: cell-based, Rhizoctonia solani; settings: 48 h; for inhibition of growth at 12.5 µg/g: Concentration 12.5 μg/g; for inhibition of growth at 25 µg/g: Concentration 25 μg/g; for inhibition of growth at 50 µg/g: Concentration 50 μg/g
[9] = testing concentration of 100 μg/g, Table 4, read-out: Gray mold of cucumber Average inhibition rate (%)
[10] = testing concentration of 100 μg/g, Table 6, read-out: Gray mold of cucumber Average inhibition rate (%)
[11] = testing concentration of 100 μg/g, Table 6, read-out: Sheath and culm blight of rice Average inhibition rate (%)
[12] = Concentration 100 μg/g, Table 7, read-out: Gray mold of cucumber (inhibition)
[13] = Concentration 100 μg/g, Table 7, read-out: Sheath and culm blight of rice (inhibition)

Compound	pest or weed control at 500 µg/g [1] [%]	pest or weed control at 500 µg/g [2] [%]	pest or weed control at 500 µg/g [3] [%]	pest or weed control at 500 µg/g [4] [%]	inhibition of growth at 100 µg/g [5, 9] [%]	melting point [°C]	inhibition of growth at 100 µg/g [5, 10] [%]	inhibition of growth at 100 µg/g [6] [%]	inhibition of growth at 100 µg/g [7] [%]	inhibition of growth at 100 µg/g [8, 11] [%]	inhibition of growth at 12.5 µg/g ([5]; Table 8) [%]	inhibition of growth at 25 µg/g ([5]; Table 8) [%]	inhibition of growth at 50 µg/g ([5]; Table 8) [%]	inhibition of growth at 12.5 µg/g ([8]; Table 8) [%]	inhibition of growth at 25 µg/g ([8]; Table 8) [%]	inhibition of growth at 50 µg/g ([8]; Table 8) [%]	further results
Cc1ncc(Cn2cc(COc3ccc([N+](=O)[O-])cc3)nn2)c(N)n1 [Compound 1]	90	60	50	75	–	–	–	–	–	–	–	–	–	–	–	–	–
Cc1ncc(Cn2cc(COc3ccc([N+](=O)[O-])cc3[N+](=O)[O-])nn2)c(N)n1 [Compound 8]	70	60	70	60	54	210 to 211	–	–	–	–	–	–	–	–	–	–	–
Cc1ncc(Cn2nnc(COc3ccc([N+](=O)[O-])cc3)c2I)c(N)n1 [Compound 24]	–	–	–	–	–	215 to 217	84	68	66	97	–	–	–	–	–	–	–
Cc1ncc(Cn2nnc(COc3ccc(Cl)cc3)c2I)c(N)n1 [Compound 28]	–	–	–	–	–	183 to 185	100	67	69	100	85	90	98	87	96	98	inhibition of growth at 25 µg/g ([5]; Table 7): 42%; inhibition of growth at 50 µg/g ([5]; Table 7): 86%; inhibition of growth at 100 µg/g [5, 12]: 90%; Wheat scab (inhibition) ([6]; Concentration 25 μg/g): 43%; Wheat scab (inhibition) ([6]; Concentration 50 μg/g): 64%; Wheat scab (inhibition) ([6]; Concentration 100 μg/g): 69%; Early blight of tomato (inhibition) ([7]; Concentration 25 μg/g): 0%; Early blight of tomato (inhibition) ([7]; Concentration 50 μg/g): 28%; Early blight of tomato (inhibition) ([7]; Concentration 100 μg/g): 68%; inhibition of growth at 25 µg/g ([8]; Table 7): 91%; inhibition of growth at 50 µg/g ([8]; Table 7): 98%; inhibition of growth at 100 µg/g [8, 13]: 99%
CC1COC(Cn2cncn2)(c2ccc(Oc3ccc(Cl)cc3)cc2Cl)O1 (centres unmarked) [Difenoconazole, reference compound]	–	–	–	–	73	–	96	98	100	100	–	–	–	–	–	–	inhibition of growth at 100 µg/g [5, 12]: 86%; inhibition of growth at 100 µg/g ([5]; Concentration 100 μg/g, Table 8, read-out: Gray mold of cucumber (inhibition)): 96%; Wheat scab (inhibition) ([6]; Concentration 100 μg/g): 95%; inhibition of growth at 100 µg/g [8, 13]: 91%; inhibition of growth at 100 µg/g ([8]; Concentration 100 μg/g, Table 8, read-out: Sheath and culm blight of rice (inhibition)): 100%
Cc1ncc(Cn2nnc(COc3ccc(C#N)cc3)c2I)c(N)n1 [Compound 31]	–	–	–	–	–	199 to 201	95	58	70	97	75	87	91	78	88	96	–
COC(=O)Cc1ccc(OCc2cn(Cc3cnc(C)nc3N)nn2)cc1 [Compound 9]	90	60	60	80	79	142 to 143	–	–	–	–	–	–	–	–	–	–	–
Cc1ncc(Cn2nnc(COc3ccc(Br)cc3)c2I)c(N)n1 [Compound 84]	–	–	–	–	–	138 to 140	93	62	58	98	66	90	94	73	95	97	–
COc1ccc(OCc2cn(Cc3cnc(C)nc3N)nn2)cc1 [Compound 13]	70	60	80	50	49	115 to 117	–	–	–	–	–	–	–	–	–	–	–
Cc1ncc(Cn2cc(COc3ccccc3[N+](=O)[O-])nn2)c(N)n1 [Compound 16]	70	70	80	50	82	184 to 185	–	63	–	–	–	–	–	–	–	–	–
